# Assay results from patent US9220680B2, “Compositions and methods for localized drug delivery through mammary papillae” (South Dakota State University, priority 2012, dated 2015).
# Where “and” joins values, the source holds several entries; their conditions need not be identical. Equal entries are not always repeated.
# Columns and labels:
# [1] = Transmammary permeation across human mammary papilla with and without removal of the keratin plug (Experiments 12-18); type: in vitro ADME; conditions: for lag time / cumulative amount permeated / Drug retention in tissue / Flux: value (SEM); for cumulative amount permeated: 48 hours; for Drug retention in tissue: end of 48 hours; for Increase in permeation across the tissues upon removal of the keratin plugs: human mammary papilla
# Excerpt: Mammary papillae tissues were thawed. […] The drug solutions were spiked with radioactive substances. […] Receptor medium was PBS with 7.4 pH. […] Results may be seen in FIG. 37 and Table 13.
# Mammary papillae tissues were thawed. […] The drug solutions were spiked with radioactive substances. […] Receptor medium was PBS with 7.4 pH. […] Results may be seen in FIG. 38 and Table 15.
# Mammary papillae tissues were thawed. […] The drug solutions were spiked with radioactive substances. […] Receptor medium was PBS with 7.4 pH. […] Results may be seen in FIG. 39 and Table 17.
# Mammary papillae tissues were thawed. […] The drug solutions were spiked with radioactive substances. […] Receptor medium was PBS with 7.4 pH. […] Results may be seen in FIG. 40.
# Mammary papillae and skin tissues were thawed. […] The drug solutions were spiked with radioactive substances. […] Receptor medium was PBS with 7.4 pH. […] Results may be seen in FIG. 41 and Table 20.
# Mammary papillae and skin tissues were thawed. […] The drug solutions were spiked with radioactive substances. […] Receptor medium was PBS with 7.4 pH. […] Results may be seen in FIG. 42 and Table 22.
# Mammary papillae tissues were thawed. […] The drug solutions were spiked with radioactive substances. […] Receptor medium was PBS with 7.4 pH. […] Results may be seen in FIG. 43 and Table 24.
# [2] = cited from earlier work
# [3] = Transmammary permeation across porcine mammary papilla with and without removal of the keratin plug (Experiments 7-10); type: in vitro ADME
# Excerpt: Keratin plug was removed from human and porcine mammary papilla using an alcoholic cotton swab. The swab was gently rubbed on the surface of the mammary papilla. The mammary papilla was observed under the microscope to confirm the removal of the plug from the surface and to confirm that epidermis of the mammary papilla was not damaged during this procedure.
# The drug solutions were spiked with radioactive substances. […] Receptor medium was PBS with 7.4 pH.
# (§1) Mammary papillae tissues were thawed. Keratin plugs were removed from the mammary papilla tissues using swabs with ethanol. […] The drug solutions were spiked with radioactive substances. […] Receptor medium was PBS with 7.4 pH.
# as §1
# Mammary papillae tissues were thawed. Keratin plugs were removed from the mammary papilla tissues using swabs with ethanol. […] The drug solutions were spike with radioactive substances. […] Receptor medium was PBS with 7.4 pH.
# [4] = Permeation across human breast skin (Experiments 16-18); type: in vitro ADME
# Excerpt: Mammary papillae and skin tissues were thawed. Keratin plugs were removed from the mammary papilla tissues using swabs with ethanol. […] The drug solutions were spiked with radioactive substances. […] Receptor medium was PBS with 7.4 pH. […] Results may be seen in FIG. 41 and Table 20.
# Mammary papillae and skin tissues were thawed. Keratin plugs were removed from the mammary papilla tissues using swabs with ethanol. […] The drug solutions were spiked with radioactive substances. […] Receptor medium was PBS with 7.4 pH. […] Results may be seen in FIG. 42 and Table 22. […]
# [5] = In vitro penetration and permeation via excised porcine mammary papilla, Franz diffusion cell (Example 1); type: in vitro ADME
# Method: Drug penetration and permeation via mammary papillae was performed in a Franz diffusion cell using excised porcine mammary papilla. […] The transport studies were performed at time points for 6 and 48 hours.
# In a separate study to evaluate the drug retention and disposition, the treatment was removed after 6 hours and the study was continued until the 48 hour mark. Samples were withdrawn from the receptor compartment at different time points. At the end of study, the mammary papilla was cut to 2 mm thick cylindrical sections from the top to the base of the tissue and was digested using a tissue solubilizer. The drug concentrations were determined by liquid scintillation counting.
# Methods for the preparation of porcine mammary papilla. Freshly excised strips of porcine mammary papilla (6-7 months old animals) were washed with deionized water followed by removal of subcutaneous fatty tissue using a scalpel. Keeping the mammary papilla in the center, 3 cm×3 cm sized specimens of the tissue were excised, subcutaneous fat tissue was removed, and the tissue was frozen at −20° C. until used for the drug penetration and permeation studies.
# Breast tissue was mounted between the two compartments of a vertical Franz diffusion cell (FDC) with breast tissue sandwiched between donor and receptor compartments. A mammary papilla was set in upright position inside the donor compartment of Franz diffusion cell. […] Samples were withdrawn from the receptor at different time points for 48 hours to determine drug concentration by radioactive count. At the end of 48 hours, tissue samples were taken for drug content determination. […]
# In a second study, the mammary papillae in Franz diffusion cells were treated with the drugs for 48 hours and the permeation was followed through 48 hours. This analysis provided information regarding any saturation from drug treatment for extended periods of time. […]
# Extraction of drugs from the mammary papilla. At the end of permeation study, the mammary papilla was removed from Franz diffusion cell and thoroughly washed with deionized water and blotted dried. Approximately 2 mm thick sections of the tissue were taken using a scalpel. These sections were homogenized, the drug was extracted, and the drug concentration was determined by radioactive counts.
# [6] = Dye penetration study of mammary papilla, confocal and fluorescence microscopy; type: in vitro ADME, porcine; conditions: 12 hours treatment; 2 mm section from middle of papilla; confocal laser scanning microscopy
# Method: For dye penetration studies, 10 mM of the dye sulforhodamine B (SRB) in 1:1 of ethanol:phosphate buffer and 0.32 mM of Nile Red (NR) in propylene glycol were applied on the mammary papillae for 12 hours. At the end of the study, the tissue was washed, cut into 2 mm thick sections as described earlier and placed on a glass slide for confocal microscopy study. Confocal images of mammary papilla were taken from approximately […] below the surface of the mammary papilla.
# Mammary papillae were treated with each dye for 12 hours. Then, starting from tip, 2 mm thick sections of papillae were taken (FIG. 8). Section B was taken from middle of mammary papilla and studied with confocal laser scanning microscopy. From this 2 mm thick section, xy dimensional images were taken at different depths starting from 0 to 500 μm. Because xy views are taken at different depths (the dimension z), these are xyz images. The upper image is an xyz view after treatment with hydrophilic dye SRB. […] The xz views of the mammary papillae were also analyzed.
# Fluorescence Microscopy. To verify the confocal data, cryo-sectioning of mammary papillae was performed after 12 hours treatment with the dyes. […] Sections from various different depths of the papilla and studied by fluorescence microscopy. […]
# [7] = EST 15 mg/ml, human mammary papilla with keratin plug removal
# [8] = EST 15 mg/ml, human mammary papilla without keratin plug removal
# [9] = excised porcine mammary papilla, saturated solution in ethanol:water (50:50), 48 h, mean ± SEM, n=3
# [10] = porcine mammary papilla, end of 48 h, mean ± SEM, n=3
# [11] = dextran 10 mg/ml, human mammary papilla with keratin plug removal, *Values multiplied by 1000
# [12] = dextran 10 mg/ml, human mammary papilla without keratin plug removal, *Values multiplied by 1000
# [13] = porcine mammary papilla after keratin plug removal, 48 hours, n=4
# [14] = porcine mammary papilla after keratin plug removal, end of 48 hours
# [15] = porcine mammary papilla after keratin plug removal, end of 48 hours, n=4
compound,measurement,setting,value
"C[C@]12CC[C@@H]3c4ccc(O)cc4CC[C@H]3[C@@H]1CC[C@@H]2O [EST, estradiol]",lag time,"[1]; EST 15 mg/ml in 50:50 ethanol:water, human mammary papilla with keratin plug removal",2.08 (0.28) hours
same,cumulative amount permeated,[1]; [7],2.62 (0.97) μmole
same,Drug retention in tissue,[1]; [7],6.25 (2.12) umole/g of tissue
same,Flux,[1]; [7],0.09 (0.03) μmole/cm^2/hour
same,cumulative amount permeated,[1]; [8],0.58 (0.06) μmole
same,Drug retention in tissue,[1]; [8],1.06 (0.04) umole/g of tissue
same,Flux,[1]; [8],0.01 (0.00) μmole/cm^2/hour
same,lag time,[1]; [8],7.02 (0.94) hours
same,Permeation profile via human vs porcine mammary papillae,"[1]; after keratin plug removal, 48 hours (Experiment 15)",similar
same,Increase in permeation across the tissues upon removal of the keratin plugs,[1],more than 10 fold
same,Log P,[2],3.6
same,Change of permeation upon removal of the keratin plugs (in words),"[3]; porcine mammary papilla, donor in 50:50 ethanol:water, 48 hours",increases significantly
same,lag time,"[4]; EST 15 mg/ml in 50:50 ethanol:water, human breast skin, value (SEM)",0.56 (0.22) hours
same,cumulative amount permeated,"[4]; EST 15 mg/ml, human breast skin, 48 hours, value (SEM)",2.10 (0.16) μmole
same,Drug retention in tissue,"[4]; EST 15 mg/ml, human breast skin, end of 48 hours, value (SEM)",2.94 (0.30) umole/g of tissue
same,Flux,"[4]; EST 15 mg/ml, human breast skin, value (SEM)",0.07 (0.01) μmole/cm^2/hour
same,Lag time,"[5]; excised porcine mammary papilla, Franz diffusion cell, saturated solution in ethanol:water (50:50), 48 h, mean ± SEM, n=3",7.07 ± 0.29 h
same,Cumulative % permeated,[5]; [9],1.03 ± 0.08%
same,Flux × 10^3,[5]; [9],2.57 ± 0.15 μM · cm^2 · hr^−1
same,Permeability coefficient × 10^3,[5]; [9],0.05 ± 0.002 cm^2 · hr^−1
same,cumulative amount permeated,[5]; [9],0.23 ± 0.02 µM
same,Cumulative % retained,[5]; [10],4.52 ± 0.59%
same,"Drug extraction from 2 mm thick mammary papilla sections, Section A (tip)",[5]; [10],5.45 ± 0.49 µM/g
same,"Drug extraction from 2 mm thick mammary papilla sections, Section B",[5]; [10],3.63 ± 0.26 µM/g
same,"Drug extraction from 2 mm thick mammary papilla sections, Section C",[5]; [10],2.53 ± 0.31 µM/g
same,"Drug extraction from 2 mm thick mammary papilla sections, Section D (base)",[5]; [10],1.55 ± 0.53 µM/g
same,Permeation across mammary papilla (in words),"[5]; porcine mammary papilla, treatment up to 48 hours",significant EST transport across the mammary papilla
"CCN(CC)c1ccc2nc3c4ccccc4c(=O)cc-3oc2c1 [NR, Nile Red]",Log P,[2],3.8
same,Distribution of dye fluorescence in mammary papilla,[6],observed only in and around the ducts
"CCN(CC)c1ccc2c(-c3ccc(S(=O)(=O)O)cc3S(=O)(=O)[O-])c3ccc(=[N+](CC)CC)cc-3oc2c1 [SRB, sulforhodamine B]",Log P,[2],−0.74
same,Distribution of dye fluorescence in mammary papilla,[6],distribution of the dye in both the ducts and in the surrounding tissue
dextran,lag time,"[1]; dextran 10 mg/ml in 50:50 ethanol:water, human mammary papilla with keratin plug removal",9.63 (0.90) hours
same,cumulative amount permeated,[1]; [11],119.42 (19.35)* μmole
same,Drug retention in tissue,[1]; [11],789.33 (99.11)* umole/g of tissue
same,cumulative amount permeated,[1]; [12],16.54 (7.32)* μmole
same,Drug retention in tissue,[1]; [12],89.88 (19.26)* umole/g of tissue
same,lag time,"[1]; dextran 10 mg/ml, human mammary papilla without keratin plug removal",14.74 (1.41) hours
same,Increase in permeation across the tissues upon removal of the keratin plugs,[1],more than 7 fold
same,Increase in permeation upon removal of the keratin plugs,"[3]; porcine mammary papilla, 10 mg/ml in 50:50 ethanol:water, 48 hours",approximately 2 folds
same,Penetration via human breast skin (in words),[4]; 48 hrs treatment,no penetration of dextran even with 48 hrs treatment
same,lag time,"[4]; dextran 10 mg/ml in 1:1 ethanol:water, human breast skin, value (SEM)",30.15 (3.04) hours
inulin,Transmammary flux,[3]; porcine mammary papilla,0.33 μg/sq·cm/h
same,lag time,"[3]; porcine mammary papilla after keratin plug removal, 10 mg/ml in 50:50 ethanol:water, n=4",16.7 h and 16.78 h
same,Drug permeation (% of applied dose),[3]; [13],0.37 % of applied dose
same,cumulative amt. permeated,[3]; [13],0.0037 µmol
same,Amount permeated across the tissue,[3]; [14],18.37 µg
same,Amount retaining into the tissue,[3]; [14],41.28 µg
same,Drug retention in tissue (% of applied dose),[3]; [15],0.83 % of applied dose
same,Skin retention,[3]; [15],0.023 umole/g of tissue
same,Total drug retention in tissue,[3]; [15],0.0083 µmol
same,Flux,"[3]; porcine mammary papilla after keratin plug removal, n=4",0.000066 μmole/sq.cm/hr
